The experiment concerns BDF1 mice, Adenocarcinoma 755 s.c., tumor weight T/C. Put plainly: NCI In Vivo Anticancer Drug Screen. Data for tumor model Adenocarcinoma 755 (subcutaneous) in B6D2F1 (BDF1) mice. Conditions: endpoint: mean tumor weight, higher = larger tumour. An outline of the steps: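 Tumor-bearing mice receive test compound while controls get vehicle alone. Antitumor effect is scored from survival or tumor dimensions as a T/C quotient.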

[1] abbreviates: dose: 75.0 mg/kg/injection, schedule: Q01DX011 (ip), vehicle: carboxymethylcellulose (CMC).
The mark [2] stands for this setting: dose: 1.25 mg/kg/injection, schedule: Q01DX011 (ip), vehicle: saline.
[3] abbreviates: dose: 2.5 mg/kg/injection, schedule: Q01DX011 (ip), vehicle: saline.

Structures are written as SMILES. Values joined by “and” are separate entries in the source; they are usually repeats but may differ in a detail not shown here. Equal entries are not always repeated.

A word on the T/C: it is the result in the treated group divided by that in the control group, in per cent. With `Cc1ccc2c(c1)Sc1ccc3ccccc3c1N2`, the T/C runs as follows: (dose: 12.5 mg/kg/injection, schedule: Q01DX011 (ip), vehicle: carboxymethylcellulose (CMC)) 57 % of control; (dose: 15.0 mg/kg/injection, schedule: Q01DX011 (ip), vehicle: saline) 94 % of control; (dose: 22.0 mg/kg/injection, schedule: Q01DX011 (ip), vehicle: saline) 42 % of control; (dose: 25.0 mg/kg/injection, schedule: Q01DX011 (ip), vehicle: carboxymethylcellulose (CMC)) 27 % of control; (dose: 33.0 mg/kg/injection, schedule: Q01DX011 (ip), vehicle: saline) 36 % of control; (dose: 50.0 mg/kg/injection, schedule: Q01DX011 (ip), vehicle: carboxymethylcellulose (CMC)) 26 % of control and 42 % of control. For the same molecule, the T/C is, setting by setting: (dose: 50.0 mg/kg/injection, schedule: Q01DX011 (ip), vehicle: saline) 26 % of control and 51 % of control; (dose: 62.5 mg/kg/injection, schedule: Q01DX011 (ip), vehicle: carboxymethylcellulose (CMC)) 58 % of control; under setting [1], 37 % of control; (dose: 75.0 mg/kg/injection, schedule: Q01DX011 (ip), vehicle: saline) 28 % of control; (dose: 112.0 mg/kg/injection, schedule: Q01DX011 (ip), vehicle: carboxymethylcellulose (CMC)) 43 % of control; (dose: 112.0 mg/kg/injection, schedule: Q01DX011 (ip), vehicle: saline) 14 % of control. For the same molecule, the T/C was 18 % of control and 22 % of control (dose: 168.0 mg/kg/injection, schedule: Q01DX011 (ip), vehicle: carboxymethylcellulose (CMC)); 14 % of control (dose: 168.0 mg/kg/injection, schedule: Q01DX011 (ip), vehicle: saline); 10 % of control (dose: 335.0 mg/kg/injection, schedule: Q01DX011 (ip), vehicle: carboxymethylcellulose (CMC)).

With `O[C@H](CN1CC1)[C@@H](O)CN1CC1`, the T/C (dose: 0.19 mg/kg/injection, schedule: Q01DX011 (ip), vehicle: methylcellulose (MC)) is 50 % of control; the T/C (dose: 0.38 mg/kg/injection, schedule: Q01DX011 (ip), vehicle: methylcellulose (MC)) is 47 % of control; the T/C (dose: 0.75 mg/kg/injection, schedule: Q01DX011 (ip), vehicle: methylcellulose (MC)) is 13 % of control; the T/C (dose: 1.5 mg/kg/injection, schedule: Q01DX011 (ip), vehicle: methylcellulose (MC)) was 8 % of control.

In the case of `Nc1nc2c(nc(Br)n2C2OC(CO)C(O)C2O)c(=O)[nH]1` (centres undefined), the T/C reads like this: (dose: 30.0 mg/kg/injection, schedule: Q01DX011 (ip), vehicle: carboxymethylcellulose (CMC)) 82 % of control; (dose: 60.0 mg/kg/injection, schedule: Q01DX011 (ip), vehicle: carboxymethylcellulose (CMC)) 43 % of control; (dose: 120.0 mg/kg/injection, schedule: Q01DX011 (ip), vehicle: carboxymethylcellulose (CMC)) 17 % of control.

As to `C[N+](C)(C)c1ncnc2nc[nH]c12`, the T/C was 89 % of control and 77 % of control under setting [2]; 61 % of control and 75 % of control and 86 % of control under setting [3]; 44 % of control (dose: 11.25 mg/kg/injection, schedule: Q01DX011 (ip), vehicle: saline); 6 % of control and 12 % of control (dose: 20.0 mg/kg/injection, schedule: Q01DX011 (ip), vehicle: saline); 3 % of control (dose: 22.5 mg/kg/injection, schedule: Q01DX011 (ip), vehicle: saline); 1 % of control and 3 % of control (dose: 40.0 mg/kg/injection, schedule: Q01DX011 (ip), vehicle: saline). Also, the T/C is 1 % of control (dose: 45.0 mg/kg/injection, schedule: Q01DX011 (ip), vehicle: saline); 1 % of control and 4 % of control (dose: 80.0 mg/kg/injection, schedule: Q01DX011 (ip), vehicle: saline); 1 % of control (dose: 90.0 mg/kg/injection, schedule: Q01DX011 (ip), vehicle: saline); 1 % of control and 3 % of control (dose: 160.0 mg/kg/injection, schedule: Q01DX011 (ip), vehicle: saline).

In the case of `CCOc1nc(N)nc2n[nH]nc12`, the T/C reads like this: under setting [1], 67 % of control; (dose: 150.0 mg/kg/injection, schedule: Q01DX011 (ip), vehicle: carboxymethylcellulose (CMC)) 9 % of control.

For the molecule `CCC(C)Cn1cnc2c(SCc3ccccc3F)nc(N)nc21` (centres undefined), the T/C by setting is: (dose: 20.0 mg/kg/injection, schedule: Q01DX011 (ip), vehicle: methylcellulose (MC)) 64 % of control; (dose: 65.0 mg/kg/injection, schedule: Q01DX011 (ip), vehicle: methylcellulose (MC)) 76 % of control; (dose: 200.0 mg/kg/injection, schedule: Q01DX011 (ip), vehicle: methylcellulose (MC)) 30 % of control.

With `O=C(O)c1cc(Cl)nc(Cl)n1`, the T/C (dose: 31.0 mg/kg/injection, schedule: Q01DX011 (ip), vehicle: methylcellulose (MC)) was 92 % of control; the T/C (dose: 62.0 mg/kg/injection, schedule: Q01DX011 (ip), vehicle: methylcellulose (MC)) was 103 % of control; the T/C (dose: 125.0 mg/kg/injection, schedule: Q01DX011 (ip), vehicle: methylcellulose (MC)) was 105 % of control.

`Cn1cnc([N+](=O)[O-])c1Sc1nc(N)nc2nc[nH]c12`: the T/C (dose: 0.04 mg/kg/injection, schedule: Q01DX011 (ip), vehicle: alkali diluted with saline) was 76 % of control; the T/C (dose: 0.07 mg/kg/injection, schedule: Q01DX011 (ip), vehicle: methylcellulose (MC)) was 84 % of control; the T/C (dose: 0.08 mg/kg/injection, schedule: Q01DX011 (ip), vehicle: alkali diluted with saline) is 72 % of control; the T/C (dose: 0.13 mg/kg/injection, schedule: Q01DX011 (ip), vehicle: methylcellulose (MC)) is 86 % of control; the T/C (dose: 0.16 mg/kg/injection, schedule: Q01DX011 (ip), vehicle: alkali diluted with saline) was 102 % of control; the T/C (dose: 0.2 mg/kg/injection, schedule: Q01DX011 (ip), vehicle: methylcellulose (MC)) is 30 % of control. The T/C was 29 % of control (dose: 0.25 mg/kg/injection, schedule: Q01DX011 (ip), vehicle: distilled water + alcohol); 65 % of control (dose: 0.25 mg/kg/injection, schedule: Q01DX011 (ip), vehicle: methylcellulose (MC)); 82 % of control (dose: 0.32 mg/kg/injection, schedule: Q01DX011 (ip), vehicle: alkali diluted with saline); 102 % of control (dose: 0.32 mg/kg/injection, schedule: Q01DX011 (ip), vehicle: saline); 8 % of control (dose: 0.39 mg/kg/injection, schedule: Q01DX011 (ip), vehicle: methylcellulose (MC)); 18 % of control (dose: 0.52 mg/kg/injection, schedule: Q01DX011 (ip), vehicle: distilled water + alcohol). Besides, the T/C is 89 % of control (dose: 0.62 mg/kg/injection, schedule: Q01DX011 (oral), vehicle: saline); 41 % of control (dose: 0.63 mg/kg/injection, schedule: Q01DX011 (ip), vehicle: alkali diluted with saline); 46 % of control (dose: 0.63 mg/kg/injection, schedule: Q01DX011 (ip), vehicle: saline); 7 % of control (dose: 0.78 mg/kg/injection, schedule: Q01DX011 (ip), vehicle: methylcellulose (MC)); 27 % of control (dose: 1.0 mg/kg/injection, schedule: Q01DX011 (ip), vehicle: methylcellulose (MC)); 5 % of control (dose: 1.05 mg/kg/injection, schedule: Q01DX011 (ip), vehicle: distilled water + alcohol). For the same molecule, the T/C is 2 % of control (dose: 1.25 mg/kg/injection, schedule: Q01DX011 (ip), vehicle: alkali diluted with saline); 4 % of control under setting [2]; 36 % of control (dose: 1.25 mg/kg/injection, schedule: Q01DX011 (oral), vehicle: saline); 5 % of control (dose: 1.56 mg/kg/injection, schedule: Q01DX011 (ip), vehicle: methylcellulose (MC)); 6 % of control (dose: 2.08 mg/kg/injection, schedule: Q01DX011 (ip), vehicle: distilled water + alcohol); 1 % of control (dose: 2.5 mg/kg/injection, schedule: Q01DX011 (ip), vehicle: alkali diluted with saline). Besides, the T/C by setting is: (dose: 2.5 mg/kg/injection, schedule: Q01DX011 (ip), vehicle: methylcellulose (MC)) 4 % of control; under setting [3], 3 % of control; (dose: 2.5 mg/kg/injection, schedule: Q01DX011 (oral), vehicle: saline) 8 % of control; (dose: 3.12 mg/kg/injection, schedule: Q01DX011 (ip), vehicle: methylcellulose (MC)) 2 % of control; (dose: 4.19 mg/kg/injection, schedule: Q01DX011 (ip), vehicle: distilled water + alcohol) 2 % of control; (dose: 5.0 mg/kg/injection, schedule: Q01DX011 (ip), vehicle: saline) 1 % of control. The T/C is, setting by setting: (dose: 5.0 mg/kg/injection, schedule: Q01DX011 (oral), vehicle: saline) 5 % of control; (dose: 6.25 mg/kg/injection, schedule: Q01DX011 (ip), vehicle: methylcellulose (MC)) 2 % of control; (dose: 10.0 mg/kg/injection, schedule: Q01DX011 (ip), vehicle: saline) 1 % of control; (dose: 12.5 mg/kg/injection, schedule: Q01DX011 (ip), vehicle: methylcellulose (MC)) 1 % of control.

For the origin of these results see PubChem BioAssay AID180 (DTP/NCI, 2004).
